Reference: ChEMBL document CHEMBL2057208, “Benzoylbenzimidazole-based selective inhibitors targeting Cryptosporidium parvum and Toxoplasma gondii calcium-dependent protein kinase-1” (Bioorg Med Chem Lett, 2012)
pEC50, pIC50: −log10 of the molar value. The source made the active and inactive calls. The calls are words filed in the database; no cut-off is given here.

Key:
Cryptosporidium parvum = experiment: Antiparasitic activity against Cryptosporidium parvum up to 1 uM; type: functional, organism-based
Toxoplasma gondii = experiment: Antiparasitic activity against Toxoplasma gondii up to 1 uM; type: functional, organism-based
[1] = Inhibition of Cryptosporidium parvum CDPK1
[2] = target: T1, Calmodulin-domain protein kinase 1 (Toxoplasma gondii, UniProt Q9BJF5); experiment: Inhibition of Toxoplasma gondii CDPK1
T1 sequence (Q9BJF5 whole entry): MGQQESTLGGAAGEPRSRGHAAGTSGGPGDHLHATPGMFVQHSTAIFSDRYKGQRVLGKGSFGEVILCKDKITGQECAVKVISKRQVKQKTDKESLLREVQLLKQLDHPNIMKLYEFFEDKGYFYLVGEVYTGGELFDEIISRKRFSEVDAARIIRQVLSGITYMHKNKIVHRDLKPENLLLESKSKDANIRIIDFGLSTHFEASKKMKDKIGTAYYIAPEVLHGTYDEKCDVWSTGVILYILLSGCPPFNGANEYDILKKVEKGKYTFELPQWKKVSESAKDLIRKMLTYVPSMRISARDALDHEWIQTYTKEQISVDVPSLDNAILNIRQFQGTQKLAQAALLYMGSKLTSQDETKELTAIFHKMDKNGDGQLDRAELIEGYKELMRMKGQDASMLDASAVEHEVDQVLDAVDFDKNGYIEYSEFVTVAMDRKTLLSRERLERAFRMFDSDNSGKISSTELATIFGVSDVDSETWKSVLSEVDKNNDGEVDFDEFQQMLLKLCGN

cells = details: Homo sapiens, CRL8155
Description: Cytotoxicity against human CRL8155 cells after 48 to 72 hrs by Alamar blue assay

HL-60 = experiment: cells; details: Homo sapiens
Description: Cytotoxicity against human HL60 cells after 48 to 72 hrs by Alamar blue assay

[3] = target: Tyrosine-protein kinase ABL1 (Homo sapiens, UniProt P00519); experiment: Inhibition of human ABL
Chain of Tyrosine-protein kinase ABL1 (P00519 whole entry): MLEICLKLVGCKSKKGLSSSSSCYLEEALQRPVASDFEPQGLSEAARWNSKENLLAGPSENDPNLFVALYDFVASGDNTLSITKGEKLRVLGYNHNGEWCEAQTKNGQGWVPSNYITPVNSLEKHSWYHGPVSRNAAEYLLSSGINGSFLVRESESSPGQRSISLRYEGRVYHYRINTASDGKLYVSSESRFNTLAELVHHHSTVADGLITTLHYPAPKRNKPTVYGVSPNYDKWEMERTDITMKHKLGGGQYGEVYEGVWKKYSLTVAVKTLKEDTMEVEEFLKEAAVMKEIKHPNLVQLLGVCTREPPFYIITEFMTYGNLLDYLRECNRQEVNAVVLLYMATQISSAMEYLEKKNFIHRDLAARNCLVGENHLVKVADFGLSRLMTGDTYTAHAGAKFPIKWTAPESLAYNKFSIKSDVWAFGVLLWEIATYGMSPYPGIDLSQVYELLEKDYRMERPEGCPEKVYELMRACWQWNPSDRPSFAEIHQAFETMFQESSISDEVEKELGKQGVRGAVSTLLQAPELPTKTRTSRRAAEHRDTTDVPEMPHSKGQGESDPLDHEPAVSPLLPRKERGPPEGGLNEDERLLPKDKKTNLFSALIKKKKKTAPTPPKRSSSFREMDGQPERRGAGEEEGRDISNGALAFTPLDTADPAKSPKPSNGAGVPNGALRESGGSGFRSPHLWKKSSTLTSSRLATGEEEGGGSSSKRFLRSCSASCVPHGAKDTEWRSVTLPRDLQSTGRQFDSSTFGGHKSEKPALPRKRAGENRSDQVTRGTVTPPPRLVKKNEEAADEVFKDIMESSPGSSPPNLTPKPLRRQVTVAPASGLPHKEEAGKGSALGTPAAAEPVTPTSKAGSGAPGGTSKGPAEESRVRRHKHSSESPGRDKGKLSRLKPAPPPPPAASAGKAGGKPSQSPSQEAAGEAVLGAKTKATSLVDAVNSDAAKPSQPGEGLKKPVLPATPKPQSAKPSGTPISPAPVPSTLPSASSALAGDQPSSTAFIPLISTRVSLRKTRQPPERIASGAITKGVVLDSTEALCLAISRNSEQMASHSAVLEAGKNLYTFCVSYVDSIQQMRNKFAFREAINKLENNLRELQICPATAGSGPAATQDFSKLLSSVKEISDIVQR

[4] = target: Proto-oncogene tyrosine-protein kinase Src (Homo sapiens, UniProt P12931); experiment: Inhibition of human SRC
Chain of Proto-oncogene tyrosine-protein kinase Src (P12931 2-536 limits assumed): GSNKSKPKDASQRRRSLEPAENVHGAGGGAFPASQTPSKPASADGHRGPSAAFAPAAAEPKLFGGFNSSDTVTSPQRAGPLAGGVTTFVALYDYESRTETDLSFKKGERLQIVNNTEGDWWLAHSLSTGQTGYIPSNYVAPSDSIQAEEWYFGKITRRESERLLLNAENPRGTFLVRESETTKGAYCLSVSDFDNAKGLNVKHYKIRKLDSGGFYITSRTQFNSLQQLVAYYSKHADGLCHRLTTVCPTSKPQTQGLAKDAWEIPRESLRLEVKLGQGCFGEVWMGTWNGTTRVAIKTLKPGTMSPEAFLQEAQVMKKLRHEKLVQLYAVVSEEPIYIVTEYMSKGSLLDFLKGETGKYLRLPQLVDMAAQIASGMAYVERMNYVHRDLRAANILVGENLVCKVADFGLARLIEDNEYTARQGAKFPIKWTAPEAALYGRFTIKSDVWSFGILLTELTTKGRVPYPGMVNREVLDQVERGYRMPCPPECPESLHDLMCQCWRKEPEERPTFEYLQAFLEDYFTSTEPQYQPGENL

| Compound | Activity (Cryptosporidium parvum) | Activity (Toxoplasma gondii) | pIC50 [1] | pIC50 [2] | pEC50 (cells) | pEC50 (HL-60) | pIC50 [3] | pIC50 [4] |
| --- | --- | --- | --- | --- | --- | --- | --- | --- |
| O=C(c1ccccc1)c1ccc2nc(NC(=O)[C@@H]3CCCN3)[nH]c2c1 | inactive | inactive | 6.89 | 6.80 | < 4.52 | < 4.52 | – | – |
| O=C(NCCO)Nc1nc2ccc(C(=O)c3ccccc3)cc2[nH]1 | – | – | – | 6.89 | – | – | – | – |
| COC(=O)Nc1nc2cc(C(=O)c3ccccc3)ccc2[nH]1 [MEBENDAZOLE] | inactive | inactive | 6.04 | – | < 4.52 | < 4.52 | – | – |
| NCCC(=O)Nc1nc2ccc(C(=O)c3ccccc3)cc2[nH]1 | inactive | inactive | 6.89 | 6.74 | < 4.52 | < 4.52 | – | – |
| NCCCCNC(=O)Nc1nc2ccc(C(=O)c3ccccc3)cc2[nH]1 | inactive | inactive | 6.82 | 6.85 | < 4.52 | < 4.52 | – | – |
| Nc1nc2ccc(C(=O)c3ccccc3)cc2n1CCc1ccc(F)cc1 | inactive | inactive | 6.02 | 6.72 | < 4.52 | < 4.52 | – | – |
| Nc1nc2ccc(C(=O)c3ccccc3)cc2n1CC[C@H]1CCCN1 | inactive | inactive | 7.02 | 7.19 | < 4.52 | < 4.52 | – | – |
| Nc1nc2ccc(C(=O)c3ccccc3)cc2n1C[C@H]1CCNC1 | inactive | inactive | 6.92 | 6.92 | < 4.52 | < 4.52 | – | – |
| COC(=O)Nc1nc2ccc(C(O)c3ccccc3)cc2[nH]1 (stereo not given) | – | – | < 5.52 | < 5.52 | – | – | – | – |
| O=C(NCCCCO)Nc1nc2ccc(C(=O)c3ccccc3)cc2[nH]1 | inactive | inactive | 6.23 | 6.42 | < 4.52 | < 4.52 | – | – |
| Nc1nc2ccc(C(=O)c3ccccc3)cc2n1CCc1ccccn1 | inactive | inactive | 6.08 | 6.59 | < 4.52 | < 4.52 | – | – |
| O=C(CCC1CCNCC1)Nc1nc2ccc(C(=O)c3ccccc3)cc2[nH]1 | inactive | inactive | 6.96 | 7.39 | < 4.52 | < 4.52 | – | – |
| CN1CCC(CCn2c(N)nc3ccc(C(=O)c4ccccc4)cc32)CC1 | inactive | inactive | 7.59 | 7.52 | < 4.52 | < 4.52 | < 5.00 | < 5.00 |
| Nc1nc2ccc(C(=O)c3ccccc3)cc2n1C[C@@H]1CCCN1 | inactive | inactive | 6.59 | 6.39 | < 4.52 | < 4.52 | – | – |
| CN1CCN(CCn2c(N)nc3ccc(C(=O)c4ccccc4)cc32)CC1 | inactive | inactive | 7.44 | 7.37 | < 4.52 | < 4.52 | < 5.00 | < 5.00 |
| Nc1nc2ccc(C(=O)c3ccccc3)cc2[nH]1 | inactive | inactive | 6.22 | 6.64 | < 4.52 | < 4.52 | – | < 5.00 |
| CN1CCC[C@@H]1Cn1c(N)nc2ccc(C(=O)c3ccccc3)cc21 | inactive | inactive | 6.10 | 6.18 | < 4.52 | < 4.52 | – | – |
| O=C(c1ccccc1)c1ccc2nc(NCCO)[nH]c2c1 | inactive | inactive | < 5.52 | < 5.52 | < 4.52 | < 4.52 | – | – |
| Nc1nc2ccc(C(=O)c3ccccc3)cc2n1CC1CCNCC1 | inactive | inactive | – | – | < 4.52 | < 4.52 | < 5.00 | < 5.00 |
| CC(C)Cn1c(N)nc2ccc(C(=O)c3ccccc3)cc21 | inactive | inactive | 6.64 | 7.17 | < 4.52 | < 4.52 | – | – |

| Compound | Activity (Cryptosporidium parvum) | Activity (Toxoplasma gondii) | pIC50 [1] | pIC50 [2] | pEC50 (cells) | pEC50 (HL-60) | pIC50 [3] | pIC50 [4] |
| --- | --- | --- | --- | --- | --- | --- | --- | --- |
| O=C(CCCC1CCNCC1)Nc1nc2ccc(C(=O)c3ccccc3)cc2[nH]1 | inactive | inactive | 7.09 | 7.74 | < 4.52 | < 4.52 | – | – |
| O=C(c1ccccc1)c1ccc2nc(NCCC3CCCNC3)[nH]c2c1 (stereo not given) | inactive | inactive | < 5.52 | < 5.52 | < 4.52 | < 4.52 | – | – |
| CC(C)(C)Cn1c(N)nc2ccc(C(=O)c3ccccc3)cc21 | inactive | inactive | 6.89 | 7.20 | < 4.52 | < 4.52 | – | – |
| Nc1nc2ccc(C(=O)c3ccccc3)cc2n1CCC1CCNCC1 | inactive | inactive | 7.77 | 7.70 | < 4.52 | < 4.52 | < 5.00 | < 5.00 |
| Nc1nc2ccc(C(=O)c3ccccc3)cc2n1C[C@H]1CCCN1 | inactive | inactive | 6.06 | 6.00 | < 4.52 | < 4.52 | – | – |
| CN1CCC[C@H]1CCn1c(N)nc2ccc(C(=O)c3ccccc3)cc21 | inactive | inactive | 7.15 | 7.17 | < 4.52 | < 4.52 | – | – |
| O=C(NCCC1CCCNC1)Nc1nc2ccc(C(=O)c3ccccc3)cc2[nH]1 (stereo not given) | inactive | inactive | 6.80 | 6.92 | < 4.52 | < 4.52 | – | – |
| N[C@@H](Cc1ccc(O)cc1)C(=O)Nc1nc2ccc(C(=O)c3ccccc3)cc2[nH]1 | inactive | inactive | 5.85 | 6.28 | < 4.52 | < 4.52 | – | – |
| O=C(NCCO)Nc1nc2cc(C(=O)c3ccccc3)ccc2[nH]1 | inactive | inactive | 6.74 | – | < 4.52 | < 4.52 | – | – |
| CN1CCN(CCCn2c(N)nc3ccc(C(=O)c4ccccc4)cc32)CC1 | inactive | inactive | 6.77 | 6.74 | < 4.52 | < 4.52 | – | – |
| Nc1nc2ccc(C(=O)c3ccccc3)cc2n1CCN1CCCCC1 | inactive | inactive | 6.52 | 6.80 | < 4.52 | < 4.52 | – | – |
| N[C@@H](Cc1c[nH]cn1)C(=O)Nc1nc2ccc(C(=O)c3ccccc3)cc2[nH]1 | inactive | inactive | 6.49 | 6.85 | < 4.52 | < 4.52 | – | – |
| NCCC(=O)Nc1nc2ccc(C(=O)c3ccccc3)cc2n1CC1CCNCC1 | inactive | inactive | 6.07 | 6.24 | < 4.52 | < 4.52 | – | < 5.00 |
| CN1CCC(Cn2c(N)nc3ccc(C(=O)c4ccccc4)cc32)CC1 | inactive | inactive | 6.59 | 6.82 | < 4.52 | < 4.52 | – | – |
| NCCCC(=O)Nc1nc2ccc(C(=O)c3ccccc3)cc2[nH]1 | inactive | inactive | 7.04 | 7.16 | < 4.52 | < 4.52 | – | – |
| Nc1nc2ccc(C(=O)c3ccccc3)cc2n1CCN1CCOCC1 | inactive | inactive | 6.41 | 6.66 | < 4.52 | < 4.52 | – | – |
| COC(=O)Nc1nc2ccc(C(=O)c3ccccc3)cc2[nH]1 [MEBENDAZOLE] | – | – | – | 6.17 | – | – | 5.30 | < 5.00 |
| O=C(NCCC1CCNCC1)Nc1nc2ccc(C(=O)c3ccccc3)cc2[nH]1 | inactive | inactive | 6.74 | 6.89 | < 4.52 | < 4.52 | 7.00 | – |
| O=C(CC1CCNCC1)Nc1nc2ccc(C(=O)c3ccccc3)cc2[nH]1 | inactive | inactive | 6.92 | 7.22 | < 4.52 | < 4.52 | – | – |
| NCCCCCCC(=O)Nc1nc2ccc(C(=O)c3ccccc3)cc2[nH]1 | inactive | inactive | 7.14 | 7.66 | < 4.52 | < 4.52 | – | – |
